Legend:
[1] = target: T1, Potassium/sodium hyperpolarization-activated cyclic nucleotide-gated channel 1 (Homo sapiens, UniProt O60741); test: Inhibition of human HCN1 heterologously expressed in HEK-293 cells after 30 mins by VIPR assay; assay type: cell-based, HEK293
T1 sequence (O60741 whole entry): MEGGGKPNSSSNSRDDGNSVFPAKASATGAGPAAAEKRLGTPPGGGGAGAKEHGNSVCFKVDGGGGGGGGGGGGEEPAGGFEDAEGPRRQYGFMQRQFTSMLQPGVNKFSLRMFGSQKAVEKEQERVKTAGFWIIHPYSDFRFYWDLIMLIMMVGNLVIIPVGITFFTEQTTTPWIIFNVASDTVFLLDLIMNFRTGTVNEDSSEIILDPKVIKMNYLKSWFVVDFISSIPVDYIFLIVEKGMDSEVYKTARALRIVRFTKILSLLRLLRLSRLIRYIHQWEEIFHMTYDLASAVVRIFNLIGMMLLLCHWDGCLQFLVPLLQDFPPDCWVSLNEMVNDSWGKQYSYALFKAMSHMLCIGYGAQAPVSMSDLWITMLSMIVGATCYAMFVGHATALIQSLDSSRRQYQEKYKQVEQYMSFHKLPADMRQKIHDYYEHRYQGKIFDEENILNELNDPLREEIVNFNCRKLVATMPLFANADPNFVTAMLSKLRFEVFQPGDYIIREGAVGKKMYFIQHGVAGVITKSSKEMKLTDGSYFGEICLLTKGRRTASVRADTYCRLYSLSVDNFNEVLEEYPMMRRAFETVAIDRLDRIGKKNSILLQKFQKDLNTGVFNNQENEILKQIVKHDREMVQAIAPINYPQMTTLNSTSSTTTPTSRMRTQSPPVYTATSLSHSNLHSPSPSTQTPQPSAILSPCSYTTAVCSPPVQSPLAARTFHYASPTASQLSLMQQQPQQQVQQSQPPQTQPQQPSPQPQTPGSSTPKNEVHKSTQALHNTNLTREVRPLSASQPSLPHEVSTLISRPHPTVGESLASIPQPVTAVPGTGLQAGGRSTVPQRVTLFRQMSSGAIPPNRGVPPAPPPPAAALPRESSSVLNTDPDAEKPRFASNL

[2] = target: T2, Potassium/sodium hyperpolarization-activated cyclic nucleotide-gated channel 4 (Homo sapiens, UniProt Q9Y3Q4); test: Inhibition of human HCN4 heterologously expressed in HEK-293 cells after 30 mins by VIPR assay; assay type: cell-based, HEK293
T2 sequence (Q9Y3Q4 whole entry): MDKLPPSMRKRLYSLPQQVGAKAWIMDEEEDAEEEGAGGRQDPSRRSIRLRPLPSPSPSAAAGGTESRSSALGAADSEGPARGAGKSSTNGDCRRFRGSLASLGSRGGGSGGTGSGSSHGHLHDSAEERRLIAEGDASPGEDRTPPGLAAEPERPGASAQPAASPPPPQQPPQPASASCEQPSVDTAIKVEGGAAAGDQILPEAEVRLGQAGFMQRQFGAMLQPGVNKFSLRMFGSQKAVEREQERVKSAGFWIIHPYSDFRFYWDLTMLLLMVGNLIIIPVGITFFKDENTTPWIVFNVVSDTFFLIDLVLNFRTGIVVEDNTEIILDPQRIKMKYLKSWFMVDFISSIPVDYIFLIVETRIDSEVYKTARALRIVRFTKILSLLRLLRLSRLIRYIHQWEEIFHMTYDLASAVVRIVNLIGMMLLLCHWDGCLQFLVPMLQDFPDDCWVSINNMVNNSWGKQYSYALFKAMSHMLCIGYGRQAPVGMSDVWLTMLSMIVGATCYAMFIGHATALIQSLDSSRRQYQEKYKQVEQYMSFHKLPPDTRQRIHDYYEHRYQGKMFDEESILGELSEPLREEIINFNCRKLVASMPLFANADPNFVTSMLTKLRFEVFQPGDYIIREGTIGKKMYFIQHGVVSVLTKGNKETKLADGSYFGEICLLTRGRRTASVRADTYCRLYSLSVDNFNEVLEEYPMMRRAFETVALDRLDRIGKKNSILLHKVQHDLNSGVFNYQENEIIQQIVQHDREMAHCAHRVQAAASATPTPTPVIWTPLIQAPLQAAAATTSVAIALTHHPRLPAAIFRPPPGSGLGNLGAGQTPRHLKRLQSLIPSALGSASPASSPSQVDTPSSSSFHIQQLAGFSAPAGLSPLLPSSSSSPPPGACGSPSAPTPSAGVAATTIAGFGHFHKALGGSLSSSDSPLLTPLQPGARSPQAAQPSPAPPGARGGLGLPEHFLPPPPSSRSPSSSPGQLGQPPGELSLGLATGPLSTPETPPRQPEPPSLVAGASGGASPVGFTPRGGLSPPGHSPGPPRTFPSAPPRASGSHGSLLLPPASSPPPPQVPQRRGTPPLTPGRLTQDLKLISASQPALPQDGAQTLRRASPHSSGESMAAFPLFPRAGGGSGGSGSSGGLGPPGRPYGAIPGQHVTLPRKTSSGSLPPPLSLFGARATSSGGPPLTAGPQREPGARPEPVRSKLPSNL

Homo sapiens [3] = organism: Homo sapiens; test: Selectivity for human HCN1 over human HCN4
[4] = Half life in human liver microsomes; assay type: ADME, Microsome
Homo sapiens [5] = organism: Homo sapiens; test: Selectivity for human HCN1 over human HCN2
Mus musculus [6] = test: Antiallodynic activity in ip dosed C57BL/6 mouse spared-nerve injury model assessed as reduction of tactile allodynia after 60 mins; assay type: functional; details: C57BL/6, ip, 1 h
Mus musculus [7] = organism: Mus musculus; test: Toxicity in C57BL/6 mouse assessed as induction of bradycardia after 50 mins by ECG study; assay type: organism-based; details: in vivo

CCOc1ccccc1C(=O)NCC1(N2CCN(C(C)C)CC2)CCOCC1
IC50 [1]: 316 nM | IC50 [2]: 3980 nM

Cc1ccccc1C(=O)NCC1(N2CCN(C)CC2)CCCCC1
Selectivity ratio (Homo sapiens [3]): 10 | IC50 [1]: 63100 nM | IC50 [2]: > 200000 nM

COc1ccccc1C(=O)NCC1(N2CCN(C(C)C)CC2)CCCCC1
Selectivity ratio (Homo sapiens [3]): 10 | IC50 [1]: 31.6 nM | IC50 [2]: 794 nM

CCOc1ccccc1C(=O)NCC1(N2CCN(C)CC2)CCCCC1
Selectivity ratio (Homo sapiens [3]): 10 | IC50 [1]: 126 nM | IC50 [2]: 1260 nM | half-life [4]: 22 min

COc1ccc(C(=O)NCC2(N3CCN(C)CC3)Cc3ccccc3C2)cc1
IC50 [1]: 100000 nM | IC50 [2]: > 200000 nM

CCOc1ccccc1C(=O)NCC1(N2CCN(C3CC3)CC2)CCCCC1
Selectivity ratio (Homo sapiens [3]): 10 | IC50 [1]: 50.1 nM | IC50 [2]: 316 nM

CCOc1ccccc1C(=O)NCC1(N2CCN(c3ccccc3)CC2)CCCCC1
Selectivity ratio (Homo sapiens [3]): 10 | IC50 [1]: > 200000 nM | IC50 [2]: 100000 nM

CN1CCN(C2(CNC(=O)c3ccccc3O)Cc3ccccc3C2)CC1
IC50 [1]: > 200000 nM | IC50 [2]: > 200000 nM

CN1CCN(C2(CNC(=O)c3ccccc3OCc3ccccc3)Cc3ccccc3C2)CC1
IC50 [1]: 631 nM | IC50 [2]: 2510 nM

CCOc1ccccc1C(=O)NCC1(N2CCN(CC)CC2)CCCCC1
Selectivity ratio (Homo sapiens [3]): 10 | IC50 [1]: 31.6 nM | IC50 [2]: 158 nM

COc1ccccc1C(=O)NCC1(N2CCCCC2)Cc2ccccc2C1
IC50 [1]: 50100 nM | IC50 [2]: > 200000 nM

CC(C)Oc1ccccc1C(=O)NCC1(N2CCN(C(C)C)CC2)CCCCC1
Selectivity ratio (Homo sapiens [3]): 10 | IC50 [1]: 251 nM | IC50 [2]: 1580 nM

CCc1ccccc1C(=O)NCC1(N2CCN(C(C)C)CC2)CCCCC1
Selectivity ratio (Homo sapiens [3]): 10 | IC50 [1]: > 200000 nM | IC50 [2]: 79400 nM

COc1cccc(C(=O)NCC2(N3CCN(C)CC3)Cc3ccccc3C2)c1
IC50 [1]: 63100 nM | IC50 [2]: > 200000 nM

COc1ccc([C@@H](C)CN(C/C=C\CN2C=Cc3cc(OC)c(OC)cc3CC2=O)C/C=C\CN2C=Cc3cc(OC)c(OC)cc3CC2=O)cc1OC
Selectivity ratio (Homo sapiens [3]): > 150 | Selectivity ratio (Homo sapiens [5]): 30

CN1CCN(C2(CNC(=O)c3ccccc3Cl)Cc3ccccc3C2)CC1
IC50 [1]: 20000 nM | IC50 [2]: 158000 nM

CN1CCN(C2(CNC(=O)c3ccccc3OC(F)(F)F)Cc3ccccc3C2)CC1
IC50 [1]: 25100 nM | IC50 [2]: > 200000 nM

CN1CCN(C2(CNC(=O)c3ccccc3F)Cc3ccccc3C2)CC1
IC50 [1]: 25100 nM | IC50 [2]: > 200000 nM

COc1ccccc1C(=O)NCC1(N2CCN(C(C)C)CC2)CCN(c2ccccc2)CC1
IC50 [1]: 631 nM | IC50 [2]: 5010 nM

COc1ccccc1C(=O)NCC(c1ccc(C)cc1)N1CCN(C)CC1 (configuration not stated)
IC50 [1]: 2510 nM | IC50 [2]: 20000 nM

CCOc1ccccc1C(=O)NCC1(N2CCN(C(C)C)CC2)Cc2ccccc2C1
IC50 [1]: 631 nM | IC50 [2]: 3160 nM

CCN(c1ccccc1)c1cc(NC)[n+](C)c(C)n1.[Cl-]
IC50 [1]: 158 nM | IC50 [2]: 31.6 nM | ED50 (Mus musculus [6]): 3 mg/kg | ED20 (Mus musculus [7]): 1.3 mg/kg

CCOc1ccccc1C(=O)NCC1(N2CCN(C)CC2)CCCC1
IC50 [1]: 398 nM | IC50 [2]: 5010 nM

COc1ccccc1C(=O)NCCN1CCN(C)CC1
IC50 [1]: > 200000 nM | pIC50 ([2]; hek293): > 3.7

CN1CCN(C2(CNC(=O)c3ccccc3Cl)CCCCC2)CC1
Selectivity ratio (Homo sapiens [3]): 10 | IC50 [1]: > 200000 nM | IC50 [2]: 31600 nM

COc1ccccc1C(=O)NCC1(N2CCN(C)CC2)CCc2ccccc2C1 (configuration not stated)
IC50 [1]: 1580 nM | IC50 [2]: 6310 nM

COc1ccccc1C(=O)NCC1(N2CCN(C)CC2)CCCCC1
Selectivity ratio (Homo sapiens [3]): 10 | IC50 [1]: 398 nM | IC50 [2]: 5010 nM

CCOc1ccccc1C(=O)NCC1(N2CCN(C(C)C)CC2)CCCCC1
Selectivity ratio (Homo sapiens [3]): 10 | IC50 [1]: 15.8 nM | IC50 [2]: 316 nM

CCOc1ccccc1C(=O)NCC1(N2CCCCC2)Cc2ccccc2C1
IC50 [1]: 15800 nM | IC50 [2]: 39800 nM

CCOc1ccccc1C(=O)NCC1(N2CCN(C3CCCC3)CC2)CCCCC1
Selectivity ratio (Homo sapiens [3]): 10 | IC50 [1]: 200 nM | IC50 [2]: 794 nM

CCOc1ccccc1C(=O)NCC1(N2CCN(C3CCC3)CC2)CCCCC1
Selectivity ratio (Homo sapiens [3]): 10 | IC50 [1]: 79.4 nM | IC50 [2]: 794 nM

CCOc1ccccc1C(=O)NCC1(N2CCN(C)CC2)Cc2ccccc2C1
IC50 [1]: 398 nM | IC50 [2]: 5010 nM

COc1ccccc1C(=O)NCC1(N2CCN(C)CC2)Cc2ccccc2C1
IC50 [1]: 1260 nM | IC50 [2]: 20000 nM

From ChEMBL document CHEMBL1821572, “Discovery of a novel series of selective HCN1 blockers” (Bioorg Med Chem Lett, 2011)
